Source: article PMC7486940, “Pre-symptomatic Caspase-1 inhibitor delays cognitive decline in a mouse model of Alzheimer disease and aging” (Nature Communications, 2020)

How the values were obtained:
[1] = female, C57BL/6J, mouse, in vivo, ip, 50 mg/kg, 0.25 h
Procedure: Plasma, whole brain and CSF concentrations of VX-765 and its active metabolite, VRT-043198, were determined by LC-MS/MS at Paraza Pharma (Montreal, QC, Canada). Fourteen C57BL/6J female mice received a single IP dose of 50 mg · kg^−1 VX-765 and 2 mice per time point were euthanized at 0.25, 0.5, 1, 3, 6, 8 and 24 h post-injection. Mice were isoflurane anesthetized to collect CSF and perform a cardiac puncture followed by whole body perfusion with PBS. Plasma samples were extracted 1:1 in spiking solution and internal standard solution containing 0.1 μM glyburide in acetonitrile. Brain and CSF samples were extracted 1:1 in spiking solution and internal standard solution containing 0.2 μM labetalol in 50:50 methanol:acetonitrile. Samples were centrifuged at 4000 × g for 10 min at 4 °C, the plasma supernatant diluted 1:1 and the brain and CSF supernatant diluted 1:2 in H2O, and 5 μl was injected into a Quantis LC-MS/MS system for analysis.

[2] = set-up: method as in PMID 30254377; conditions: cited from earlier work
WT mice [3] = test: Barnes maze, spatial learning and memory; assay type: in vivo, mouse
Procedure: (§1) VX-765 (Adooq Bioscience, Irvine, CA, USA) was dissolved 5 mg • ml^−1 in 20% cremophor in dH2O[60] (Sigma-Aldrich, ON, Canada) and administered IPWT and J20 mice received three injections per week of either 50 mg • kg^−1 VX-765 or 20% cremophor vehicle for 4 weeks between 2 and 3 months of age. Mice were longitudinally followed starting 4 weeks after the last injection [4-week washout (WO)], then every other month at 12- and 20-week WO (6 and 8 months of age, respectively). Intermediate 8- and 16-week WO periods were also looked at with a smaller number of mice. After each WO period, animals were randomly chosen, independent of behavioural performance, for sacrifice and assigned to either histological or biochemical analysis (Fig. 2a).
(§2) Open-field and novel object recognition (NOR) were measured at all WO periods. The Barnes maze was assessed at 12- and 20-week WO. Open field: Mice were placed in an open-field chamber, composed of a plexiglass box with no ceiling and white floor, and allowed to explore for 5 min. NOR: Mice were pre-exposed to two identical objects in the open-field chamber for 5 min. Two hours after pre-exposure, mice were placed back into the chamber and exposed to one familiar object and one novel object for 5 min (test phase). Mice were exposed to a specific object only once across multiple test sessions. Barnes maze: Learning acquisition (days 1–4)—each mouse was trained to find the target and enter the escape box within 180 s. Four trials per day, ~15 min apart, were performed for 4 consecutive days. Probe (day 5)—a single, 90 s trial was performed on each mouse to measure primary latency and number of errors to reach the blocked target. Target hole location was changed between the two separate test sessions. Behavioural scoring was blinded to mouse genotype and treatment.

J20 mice [4] = test: Barnes maze, spatial learning and memory; assay type: in vivo, mouse
Procedure: as §1, §2

GFAP = GFAP astrogliosis (western blot, immunostaining); assay type: in vivo, mouse
Procedure: as §1
Mice for immunohistochemistry were isoflurane anesthetized and perfused with ice-cold 4% paraformaldehyde in 0.1 M PBS (Sigma-Aldrich). Brains were post-fixed overnight in 10% neutral-buffered formalin (ThermoFisher Scientific, ON, Canada) and transferred to 70% ethanol for paraffin embedding and sectioning at 4 μm. Tissue slides underwent heat-induced antigen retrieval with citrate or EDTA buffer. […]
Iba1-positive microglia were quantified using a modified version of an area-specific counting frame. […] Microglial activation level was determined based on morphological measurements[19],[41]. Aβ1-40 and GFAP immunostaining density was measured across four sections using ImageJ software (NIH, Bethesda, MD, USA). Quantification was blinded to treatment and genotype.
Twenty to sixty micrograms of protein or 16 μl of precipitated protein from culture medium were separated on SDS-PAGE or 4–12% NuPAGE Bis-Tris gels (Invitrogen, Carlsbad, CA, USA) with MES buffer (Invitrogen) and transferred onto PVDF membranes (Bio-Rad) according to the manufacturer’s instructions. […] Protein levels were normalized to β-actin and expressed as a percentage relative to the vehicle-treated WT group, except for APP which was compared to the vehicle-treated J20 group. […]

all other caspases = tested on: all other caspases; set-up: method as in PMID 30254377, PMID 17289835; conditions: cited from earlier work
WT mice [5] = test: novel object recognition (NOR), episodic memory; assay type: in vivo, mouse
Procedure: as §1, §2

J20 mice [6] = test: novel object recognition (NOR), episodic memory; assay type: in vivo, mouse
Procedure: as §1, §2

[7] = J20, 12-week WO, probe 24 h after last training day

CCO[C@@H]1OC(=O)C[C@@H]1NC(=O)[C@@H]1CCCN1C(=O)[C@@H](NC(=O)c1ccc(N)c(Cl)c1)C(C)(C)C [VX-765, (S)-1-((S)-2-{[1-(4-amino-3-chloro-phenyl)-methanoyl]-amino}-3,3-dimethyl-butanoyl)-pyrrolidine-2-carboxylic acid ((2R,3S)-2-ethoxy-5-oxo-tetrahydro-furan-3-yl)-amide]
CSF concentration relative to respective in vitro Casp1 IC50 [1]: 100 fold | brain concentration relative to respective in vitro Casp1 IC50 [1]: 50 fold | plasma concentration relative to respective in vitro Casp1 IC50 [1]: 100 fold | concentration in the J20 brain ([2]; 50 mg/kg dose of VX-765, carotid infusion, J20 mice): 2000 to 5000 nM | blood–brain barrier permeability [2]: blood–brain barrier permeable | Barnes maze probe primary latency and primary errors (WT mice [3]; 12-week WO, vs vehicle-treated WT): decreased primary latency and primary errors compared to vehicle-treated WT mice | Barnes maze probe primary latency and primary errors (WT mice [3]; 20-week WO): This effect was attenuated at 20-week WO | Barnes maze probe preference towards the target area (J20 mice [4]; 12-week WO): All groups, except the vehicle-treated J20 group, showed a preference towards the target area | Barnes maze training primary latency (J20 mice [4]; 12-week WO, all groups): did not differ between groups | Barnes maze learning acquisition primary errors (J20 mice [4]; J20, 12-week WO, 50 mg/kg IP 3x/week for 1 month): prevented this learning deficit in J20 mice and reduced the number of errors committed to near WT levels | Barnes maze probe primary errors (J20 mice [4]; [7]): VX-765 treatment prevented this deficit | Barnes maze probe primary latency (J20 mice [4]; [7]): did not differ between vehicle- or VX-765-treated J20 and vehicle-treated WT groups | Barnes maze learning deficits (J20 mice [4]; J20, 20-week WO): vehicle-, but not VX-765-treated, J20 mice exhibited learning deficits | Barnes maze probe primary latency and primary errors (J20 mice [4]; J20, 20-week WO): these deficits were prevented with VX-765 treatment | delay of GFAP astrogliosis (GFAP; J20): 3 months | immunopositive GFAP astrogliosis (GFAP; J20 hippocampus and cortex): prevented astrogliosis until 8- and 12-week WO in the hippocampus and cortex, respectively | hippocampal GFAP levels (western blot) (GFAP; J20 hippocampus, 4- and 20-week WO): normalized with VX-765 treatment only at 20-week WO | specificity to Casp1 (all other caspases): specificity to Casp1 against all other caspases | NOR performance (WT mice [5]; VX-765-treated WT, 6-month-old (12-week WO) vs VX-765-treated 4-month-old WT): increased | NOR performance (WT mice [5]; WT, 8-month-old (20-week WO), 50 mg/kg IP 3x/week for 1 month, vs same age vehicle-treated WT): increased | percentage of NOR impaired mice (WT mice [5]; WT, 50 mg/kg IP 3x/week for 1 month, 12- to 20-week WO): increased between 12- and 20-week WO in the vehicle-treated, but not VX-765-treated WT mice | delay of the onset of cognitive impairment (J20 mice [6]; J20, 50 mg/kg IP 3x/week for 1 month, pre-symptomatic): at least 5 months | NOR discrimination index (NOR impairment) (J20 mice [6]; J20, pre-symptomatic 50 mg/kg IP 3x/week for 1 month, 4-, 8-, 12-, 16- and 20-week WO, vs vehicle-treated J20): protected J20 mice against NOR impairment at all WO periods | percentage of NOR impaired mice (J20 mice [6]; VX-765-treated J20, 50 mg/kg IP 3x/week for 1 month): increased consistently between 4- and 20-week WO | NOR performance over washout (J20 mice [6]; VX-765-treated J20, 50 mg/kg IP 3x/week for 1 month, 4- vs 20-week WO): declined between 4- and 20-week WO
